Results as given in patent publication US20050202513A1.
“Also recorded” adds a separate entry of the source. Where a name gives a salt, the structure may show the parent alone. Each block holds one molecule with its values, some of them ahead of it.

Assays:
cancer patient [1] = assay: Blood Myosin Light Chain I level, sandwich RIA; conditions: cut-off 2.5 ng/mL
cancer patient [2] = assay: Clinical diagnosis of cardiac function; assay type: in vivo, human; conditions: cancer patient administered with daunorubicin hydrochloride; expression of generalized edema
Experimental: The second blood sampling in the Table was performed one month after the first blood sampling.

cancer patient [3] = assay: Blood serum human H-FABP level, sandwich ELISA (MARKIT M H-FABP kit); conditions: cut-off 6.2 ng/mL
cancer patient [4] = assay: Blood Troponin T level, sandwich ELISA; conditions: cut-off 0.1 ng/mL
cancer patient [5] = assay: Measurement of creatine kinase in blood
cancer patient [6] = assay: Echocardiogram analysis, ejection fraction of the heart; assay type: in vivo, human; conditions: cancer patient administered with adriamycin, healthy volunteer not less than 60%
Experimental: By the echocardiogram analysis, the heart pump function was evaluated based on the ejection fraction (EF) of the heart as calculated by the following formula: Ejection fraction (%)={(left ventricular relaxation terminal diameter^2−left ventricular contraction terminal diameter^2)/left ventricular relaxation terminal diameter^2)×100
The ejection fraction of healthy volunteers is known to be not less than 60%.

cancer patient [7] = assay: Electrocardiogram analysis; assay type: in vivo, human; conditions: adriamycin patient
[8] = daunorubicin hydrochloride patient, first blood sampling
[9] = daunorubicin hydrochloride patient, second blood sampling (one month after the first)
[10] = adriamycin patient, first blood sampling
[11] = adriamycin patient, second blood sampling
[12] = adriamycin patient, third blood sampling

Blood concentration Myosin Light Chain I (cancer patient [1]; [8]): <1.0 ng/mL
Blood concentration Myosin Light Chain I (cancer patient [1]; [9]): 1.4 ng/mL
Diagnosis (cancer patient [2]): cardiac failure
Blood concentration Human H-FABP (cancer patient [3]; [8]): 7.6 ng/mL
Blood concentration Human H-FABP (cancer patient [3]; [9]): 6.9 ng/mL
Blood concentration Troponin T (cancer patient [4]; [8]): <0.01 ng/mL
Blood concentration Troponin T (cancer patient [4]; [9]): <0.01 ng/mL
Blood concentration Creatine kinase (cancer patient [5]; daunorubicin hydrochloride patient with cardiac failure, first blood sampling): 11 U/L
Blood concentration Creatine kinase (cancer patient [5]; daunorubicin hydrochloride patient with cardiac failure, second blood sampling (one month after the first)): 7 U/L
SMILES: COc1cccc2c1C(=O)c1c(O)c3c(c(O)c1C2=O)C[C@@](O)(C(C)=O)C[C@@H]3O[C@H]1C[C@H](N)[C@H](O)[C@H](C)O1 [daunorubicin hydrochloride]

Blood concentration Myosin Light Chain I (cancer patient [1]; [10]): <1.0 ng/mL
Blood concentration Myosin Light Chain I (cancer patient [1]; [11]): <1.0 ng/mL
Blood concentration Myosin Light Chain I (cancer patient [1]; [12]): <1.0 ng/mL
Blood concentration Human H-FABP (cancer patient [3]; adriamycin patient, blood serum, first blood sampling): 6.8 ng/mL
Blood concentration Human H-FABP (cancer patient [3]; adriamycin patient, blood serum, second blood sampling (about 2.5 months after the first)): 9.0 ng/mL
Blood concentration Human H-FABP (cancer patient [3]; adriamycin patient, blood serum, third blood sampling (20 days after the second)): 19.6 ng/mL
EF (ejection fraction) (cancer patient [6]; first blood sampling): 53%
EF (ejection fraction) (cancer patient [6]; third blood sampling (20 days after the second)): 37%
Blood concentration Troponin T (cancer patient [4]; [10]): <0.01 ng/mL
Blood concentration Troponin T (cancer patient [4]; [11]): 0.01 ng/mL
Blood concentration Troponin T (cancer patient [4]; [12]): 0.41 ng/mL
Blood concentration Creatine kinase (cancer patient [5]; adriamycin patient, first blood sampling, healthy 25-180 U/L (male), 20-150 U/L (female)): 37 U/L
Blood concentration Creatine kinase (cancer patient [5]; adriamycin patient, second blood sampling (about 2.5 months after the first)): 36 U/L
Blood concentration Creatine kinase (cancer patient [5]; adriamycin patient, third blood sampling (20 days after the second)): 33 U/L
SMILES: COc1cccc2c1C(=O)c1c(O)c3c(c(O)c1C2=O)C[C@@](O)(C(=O)CO)C[C@@H]3O[C@H]1C[C@H](N)[C@H](O)[C@H](C)O1 [adriamycin, Doxorubicin hydrochloride]
Electrocardiogram finding (cancer patient [7]; about 1 week before the third blood sampling, hydrochloride): T wave decreased; also recorded: sinus tachycardia and supraventricular extrasystole
Electrocardiogram finding (cancer patient [7]; about 2 weeks before the first blood sampling): extension of QTc
